Test results published in the METLIN SMRT retention time set (Domingo-Almenara et al. 2019).

Assay: gradient 5% acetonitrile 3 min, to 50% in 2 min, to 85% in 15 min, held 3 min, 100 µL/min
Details: column: Zorbax Extend-C18 2.1 x 50 mm; eluents: water / acetonitrile, 0.1% formic acid
Procedure, shortened: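 Retention times of pure standards were taken from adduct peaks that were selected by computer and manually inspected. Over 3 months, mixtures of ~100 molecules were run by HPLC–quadrupole time-of-flight mass spectrometry in positive and negative ionization mode. The Zorbax Extend-C18 column (2.1 × 50 mm, 1.8 μm) ran at 100 μL/min in water and acetonitrile, each containing 0.1% formic acid, with 40 μL dead volume and 900 μL dwell volume.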

Row | RP-LC retention time | Compound
1 | 1000 s | CCOc1ccc2nc(NC(=O)C3CCCN(c4ncnc5c4nc4n5CCCCC4)C3)sc2c1 (stereo unspecified)
2 | 1110 s | Cc1cc(C)c(NC(=O)C2CCCN(S(=O)(=O)c3cc(-c4noc(C)n4)cs3)C2)c(C)c1 (stereo unspecified)
3 | 641 s | O=C(NC1CCN(Cc2ccccc2)CC1)C1CCCN(C(=O)N2CCOc3ccccc32)C1 (stereo unspecified)
4 | 935 s | Cc1cc(-n2c(C)nc3ccccc3c2=O)ccc1NC(=O)C(C)Oc1cccc(Cl)c1 (stereo unspecified)
5 | 617 s | CC(=O)NCc1nc2ccccc2n1CC(=O)Nc1ccccc1C
6 | 595 s | CCN1CCN(CCCNC(=O)c2cc(-c3ccc(C)c(C)c3)[nH]c2C)CC1
7 | 714 s | Cc1ccccc1CNC(=O)c1ccc2c(c1)CC(=O)N2C
8 | 799 s | CCn1cc(S(=O)(=O)NCc2ccccc2F)c2cccnc21
9 | 682 s | Cc1cc(C)c2c(N3CCSCC3)nc(C(=O)N(C)Cc3ccccc3)nc2n1
10 | 677 s | Cc1cc(SCC(=O)N2CCCc3ccccc32)nc(=O)[nH]1
11 | 1120 s | COc1cccc(-c2cc3c(=O)n(Cc4nc(-c5ccc(Cl)cc5)no4)ccn3n2)c1
12 | 576 s | CCCN1CCN(C(=O)c2nc3ccccn3c2-c2ccsc2)CC1
13 | 661 s | CCCNc1cc(N2CCC(CCC(=O)NCc3cccs3)CC2)ncn1
14 | 688 s | C=CCN1CC(c2nc3ccccc3n2Cc2c(F)cccc2Cl)CC1=O (stereo unspecified)
15 | 746 s | CN1c2ccccc2C(=O)NC12CCN(C(=O)c1ccc(F)c(F)c1)CC2
16 | 661 s | Cc1ccc(CNC(=O)N2CCN(CCn3c(C(F)(F)F)nc4cccnc43)CC2)cc1
17 | 1270 s | COc1cccc(C2Cn3nnc(-c4nc(-c5cccc(C(F)(F)F)c5)no4)c3CO2)c1 (stereo unspecified)
18 | 850 s | CCc1cccc(C)c1NC(=O)Cn1c(=O)n(-c2ccc(F)cc2)c(=O)c2c1cc(C)n2C

Row | RP-LC retention time | Compound
19 | 847 s | CCOC(=O)N1CCN(Cc2nc(-c3ccc(N4CCC(C)CC4)nc3)no2)CC1
20 | 1040 s | CSc1ccc(-c2noc(Cn3c(=O)n(-c4cccc(F)c4)c(=O)c4sccc43)n2)cc1
21 | 743 s | CCc1ccc(NC(=O)Cn2cnc3nc(N4CCCC(C(=O)NC5CC5)C4)sc3c2=O)cc1 (stereo unspecified)
22 | 909 s | CCOC(=O)c1c(C)n(-c2ccc(OC)cc2)c2ccc(OCC(N)=O)cc12
23 | 744 s | Cc1cccc(NC(=O)N2CCC(N3CCN(Cc4ccccc4)C(=O)C3=O)CC2)c1
24 | 800 s | COc1ccc(-n2nc(N3CCN(C(=O)CC4CCCC4)CC3)ccc2=O)cc1
25 | 741 s | CCn1cnc2ccc(-c3noc(-c4ccc(OC)cc4C)n3)cc21
26 | 1030 s | Cc1cc(C)c(OCC(=O)N(Cc2ccc(C)o2)C2CCS(=O)(=O)C2)c(C)c1 (stereo unspecified)
27 | 961 s | Cc1ccc(CNC(=O)C2(C)CN(S(C)(=O)=O)CC(=O)N2CCc2ccc(Cl)cc2)cc1 (stereo unspecified)
28 | 1040 s | CCc1ccc(NC(=O)c2cn(C)nc2S(=O)(=O)N2CCSCC2)cc1
29 | 690 s | CSc1ccc(CCNC(=O)CCCN2C(=O)CCn3nc(C)cc32)cc1
30 | 734 s | COC(=O)c1ncn2c1C(=O)N(c1cccc(C)c1C)C(C)(C(=O)NC1CCCC1)C2 (stereo unspecified)
31 | 896 s | COc1ccc(NS(=O)(=O)c2cn(CC(C)C)c3ncccc23)cc1
32 | 948 s | O=C(Nc1ccccc1C(F)(F)F)N1CCc2nc(-c3ccccc3)ncc2C1
33 | 851 s | CCc1nn(C(C)C(=O)NCCc2c[nH]c3ccccc23)c(=O)c2cc3occc3n12 (stereo unspecified)
34 | 716 s | O=S(=O)(Nc1ccc(Cn2cncn2)cc1)c1cccc(Cl)c1
35 | 689 s | COc1ccc(C(C)NC(=O)COc2ccc(NC(=O)C3CC3)cn2)cc1OC (stereo unspecified)
36 | 802 s | Cc1ccc(NC(=O)Cn2ccc3sccc3c2=O)c(Cl)c1
